This note sets out measurements from patent publication EP4707279A1, “SUBSTITUTED TRICYCLIC HETEROCYCLIC COMPOUND AS PHARMACEUTICAL FOR TREATMENT OR PREVENTION OF COVID-19” (priority 2023, dated 2024).

One assay concerns SARS-CoV-2. Put plainly: CPE inhibition assay, anti-SARS-CoV-2 virus activity in vitro (Test Example 4). The note with it: CPE inhibition at 10 µM; VeroE6-TMPRSS2 cells; MOI 0.01; third day post infection; average of three tests. The class given is cell-based.
Take “(6R,9S,11aR,11bR)-1,3-Dibenzyl-11b-hydroxy-N,6-bis(naphthalen-2-ylmethyl)-2.4.7-trioxodecahydro-2H-pyrrolo[2'.1':3,4] pyrazino[1,2-a][1,3,5] triazine-9-carboxamide [Compound 7D]”: the “Anti SARS-CoV-2 activity” value is “B (a CPE inhibition effect of less than 5% but 1% or more)”. On the same count and under the same terms, under “Ethyl (6R,9S,11aR,11bR)-1.3 dibenzyl 11b-hydroxy 6 isobutyl-2.4.7 trioxodecahydro-2H pyrrolo[2',1':3,4] pyrazino[1.2 a][1.3.5] triazine 9 carboxylate [Compound 30A]” stands “A (a CPE inhibition effect of 5% or more)”; under “Ethyl (6S,9R,11aS,11bS)-1,3,6-tribenzyl-11b-hydroxy-2,4.7-trioxodecahydro-2H-pyrrolo [2',1':3,4]pyrazino[1,2-a][1,3,5] triazine-9-carboxylate [Compound 4A]”, “C (less than 1%)”. For “Ethyl (6R.9S.11aR.11b R) 6 benzyl 11b-hydroxy 2,4,7 trioxo-1.3 bis(thiophen 2 ylm ethyl)decahydro-2H-pyrrolo[2',1':3,4] pyridazine[1,2-a] [1,3,5]triazine 9 carboxylate [Compound 18A]”, the “Anti SARS-CoV-2 activity” value was “A (a CPE inhibition effect of 5% or more)”. Consider “(6S,9R,11aS,11bS)-1,3-Dibenzyl-11b-hydroxy-6-isopropyl-N-(naphthalen-2^-ylmethyl)-2,4,7-trioxodecahydro-2H-pyrrolo[2',1':3,4]pyrazino[ 1,2-a][1,3,5]triazine-9-carboxamide [Compound 26D]”, for which the “Anti SARS-CoV-2 activity” value was “A (a CPE inhibition effect of 5% or more)”. On the same count and under the same terms, under “(6R,9S,11aR,11bR)-1,3-Dibenzyl-11b-hydroxy-6-isopropyl-N-(naphthalen-2-ylmethyl)-2,4,7-trioxodecahydro-2H-pyrrolo[ 2',1':3,4]pyrazino[1,2-a] [1,3,5]triazine^-9^-carbamide [Compound 3D]” stands “A (a CPE inhibition effect of 5% or more)”. For the molecule `CCOC(=O)[C@@H]1CCC2=C3N(Cc4ccccc4)C(=O)N(Cc4ccccc4)C(=O)N3[C@H](Cc3ccccc3)C(=O)N21` [Compound 1B, Ethyl (6R,9S)-1,3,6-tribenzyl-2,4,7-trioxo-1,3,4,6,7,9,10,11-octahydro-2H-pyrrolo[2',1':3,4]pyridazine[1,2-a][1,3,5]triazine-9-carboxylate], the “Anti SARS-CoV-2 activity” value is on record as “C (less than 1%)”. Turning to “(6R.9S.11aR.11bR)-1,3-Dibenzyl-6-(4-fluorobenzyl)-11b-hydroxy-N-(naphthalen-2-yl methyl)-2,4,7-trioxodecahydro-2H-pyrrolo[2',1':3,4]pyridazine [1,2-a][1,3,5]triazine-9-carboxamide [Compound 5D]”, the “Anti SARS-CoV-2 activity” value was “A (a CPE inhibition effect of 5% or more)”.

For “(6R.11aR)-1,3,6-tribenzyl-11b-hydroxy-11a-methylhexahydro-2H-pyrrolo[2',1':3,4] pyrazino[1,2-a][1,3,5] triazine-2,4,7(3H,6H)-trione [Compound 19A]”, the “Anti SARS-CoV-2 activity” value is listed as “A (a CPE inhibition effect of 5% or more)”. With “(6R,9S,11aR,11bR)-1,3-Dibenzyl-9-(4-fluoroisoindolin-2-carbonyl)-11b-hydroxy-6-isopropylhexahydro -2H-pyrrolo[2',1':3,4]pyri dazino[1,2-a][1,3,5] triazine-2.4. 7(3H.6H)-trione [Compound 3J]”, the “Anti SARS-CoV-2 activity” value is on record as “A (a CPE inhibition effect of 5% or more)”. The same measure, in the same setting: under `CCN(C(=O)NCCCN(C)C)C(=O)[C@@H]1CC[C@H]2N1C(=O)[C@@H](Cc1ccccc1)N1C(=O)N(Cc3cccs3)C(=O)N(Cc3cccs3)C21O` (stereo partly drawn) [Compound 18H, (6R,9S,11aR)-6-benzyl-N-((3-(dimethylamino)propyl)carbamoil)-N-ethyl-11b-Hydroxy-2,4,7-trioxo-1,3-bis(thiophen-2-ylmethyl)decahydro-2H-pyrrolo[2',1':3,4] pyrazino[1,2-a][1,3,5]triazine-9-carboxamide] stands “A (a CPE inhibition effect of 5% or more)”. Regarding “(6R,10R,11aR)-1.3,6-tribenzyl-10-(benzyl oxy)-11b-hydroxyhexahydro-2H-pyrrolo [2',1':3,4]pyrazino[1,2-a][1.3,5] triazine-2,4,7(3H.6H)-trione [Compound 15A]”, the “Anti SARS-CoV-2 activity” value was “C (less than 1%)”. Still for that read-out and setting: under `Cc1noc([C@@H]2CC[C@H]3N2C(=O)[C@@H](Cc2ccccc2)N2C(=O)N(Cc4cccs4)C(=O)N(Cc4cccs4)C32O)n1` (stereo partly drawn) [Compound 18I, (6R,9S,11aR)-6-benzyl-11b-hydroxy-9-(3-methyl-1,2,4-oxadiazol-5-yl)-1,3-bis(thiophen-2-ylmethyl)hexahydro-2H-pyrrolo[2',1':3,4]pyridazine[1,2-a][1,3,5]triazine-2,4,7(3H,6H)-trione] stands “B (a CPE inhibition effect of less than 5% but 1% or more)”.

The assay is the same for the next values; noted with them: Severe acute respiratory syndrome coronavirus 2, VeroE6/TMPRSS2, 72 h, read-out: Anti SARS-CoV-2 activity.
Take `CCOC(=O)[C@@H]1CC[C@H]2N1C(=O)[C@@H](Cc1ccc3ccccc3c1)N1C(=O)N(Cc3ccccc3)C(=O)N(Cc3ccccc3)[C@]21O` [Compound 7A, Ethyl (6R,9S,11aR,11bR)-1,3-dibenzyl-11b-hydroxy-6-(naphthalen-2-ylmethyl)-2,4,7-trioxodecahydro-2H-pyrrolo[2',1' :3,4]pyrazino[1,2-a][1,3,5]triazine-9-carboxylate]: the inhibition at 10 µM is < 1%. For `O=C(NCc1ccc2ccccc2c1)[C@H]1CCCC2=C3N(Cc4ccccc4)C(=O)N(Cc4ccccc4)C(=O)N3[C@H](Cc3ccccc3)C(=O)N21` [Compound 25E, (6R,9R)-1,3,6-Tribenzyl-N-(naphthalen-2-ylmethyl)-2,4,7-trioxo-1,2,3,4,6,7,9,10,11,12-decahydropyrido[2',1':3,4] pyrazino[1,2-a][1,3,5]triazine-9-carboxamide], the inhibition at 10 µM fell in the range of 1 to 5%. Still for that read-out and setting: the figure for `O=C1[C@H](Cc2ccccc2)N2C(=O)N(Cc3ccccc3)C(=O)N(Cc3ccccc3)C2=C2C[C@@H](OCc3ccccc3)CN12` [Compound 11B, (6S,10R)-1,3,6-Tribenzyl-10-(benzoxy)-1,9,10,11-tetrahydro-2 H-pyrrolo[2',1':3,4]pyridazino [1,2-a][1,3,5]triazine-2,4,7 (3H,6H)-trione] is > 5%; for `CCOC(=O)[C@@H]1CCC2=C3N(Cc4ccccc4)C(=O)N(Cc4ccccc4)C(=O)N3[C@H](C(C)C)C(=O)N21` [Compound 3B, Ethyl (6R.9S) 1,3-dibenzyl 6 isopropyl-2.4.7 trioxo-1,3,4,6,7,9,10,11-octahydro 2H-pyrrolo[2',1':3.4]pyrazi no[1,2 a][1,3,5] triazine 9 carboxylate] it is > 5%; for `O=C(NCc1ccc2ccccc2c1)[C@@H]1CC[C@H]2N1C(=O)C1(Cc3ccccc3C1)N1C(=O)N(Cc3ccccc3)C(=O)N(Cc3ccccc3)C21O` (stereo partly drawn) [Compound 21D, (9'S,11a'R)-1',3'-Dibenzyl-11b'-Hydroxy-N-(naphthalen-2-ylmethyl)-2',4',7'-trioxo-1,1',3,3',4',9',10',11',11a',1 1b'-decahydro-2'H,7'H-spiro[indene-2,6'-pyrrolo[2',1':3,4]pyrazino[1,2-a][1,3,5]triazine]-9'-carboxamide] it is 1 to 5%.

Turning to `CCOC(=O)[C@@H]1CC[C@H]2N1C(=O)[C@@H](C(C)C)N1C(=O)N(Cc3ccco3)C(=O)N(Cc3ccco3)[C@]21O` [Compound 28A, Ethyl (6R,9S,11aR,11bR)-1,3-bis(furan-2-ylmethyl)-11b-hydroxy-6-isopropyl-2,4,7-trioxodecahydro-2H-pyrrolo[2',1':3,4] pyrazino[1,2-a][1,3,5] triazine-9-carboxylate], the inhibition at 10 µM was > 5%. `O=C(NCc1ccc2ccccc2c1)[C@@H]1CCC2=C3N(Cc4ccccc4)C(=O)N(Cc4ccccc4)C(=O)N3[C@H](Cc3ccc4ccccc4c3)C(=O)N21` [Compound 7E, (6R,9S)-1,3-Dibenzyl-N,6-Bis(naphthalen-2-ylmethyl) -2,4,7-trioxo-1,3,4,6,7,9,10, 11-octahydro-2H-pyrrolo [2',1':3,4]pyrazino[1,2-a] [1,3,5]triazine-9-carboxamide]: the inhibition at 10 µM fell in the range of 1 to 5%. Still for that read-out and setting: under `CCOC(=O)[C@@H]1CCC2=C3N(Cc4ccccc4)C(=O)N(Cc4ccccc4)C(=O)N3[C@H](Cc3ccccc3)C(=O)N21` (stereo in doubt) [Compound 4B, Ethyl (6R,9S)-1,3,6-tribenzyl-2,4,7-trioxo-1,3,4,6,7,9,10,11-octahydro-2H-pyrrolo[2',1':3,4] pyrazino[1,2-a][1,3,5]triazine-9-carboxylate] stands > 5%; under `CC(C)[C@@H]1C(=O)N2[C@H](C(=O)NCc3ccccc3)CC[C@@H]2[C@@]2(O)N(Cc3ccccc3)C(=O)N(Cc3ccccc3)C(=O)N12` [Compound 3F, (6R,9S,11aR,11bR)-N,1,3-tribenzyl-11b-hydroxy-6-isopropyl-2,4,7-trioxodecahydro-2H-pyrrolo[2',1':3,4]pyrazino[1,2-a][1,3,5]triazine-9-carboxamide], > 5%; under `O=C1C(Cc2ccccc2)N2C(=O)N(Cc3ccccc3)C(=O)N(Cc3ccccc3)C2=C2C[C@@H](OCc3ccccc3)CN12` (stereo partly drawn) [Compound 15B, (6R,10R)-1,3,6-tribenzyl-10-(benzyloxy)-1,9,10,11-tetrahydro-2H-pyrrolo[2',1':3,4] pyridazino[1,2-a][1,3,5] triazine-2,4,7(3H,6H)-trione], < 1%.

With `CCOC(=O)[C@@H]1CC[C@H]2N1C(=O)[C@@H](CC)N1C(=O)N(Cc3ccccc3)C(=O)N(Cc3ccccc3)[C@]21O` [Compound 29A, Ethyl (6R,9S,11aR,11bR)-1,3-dibenzyl-6-ethyl-11b-hydroxy-2,4,7-trioxodecahydro-2H-pyrrolo[2',1':3,4]pyrazi no[1,2-a][1,3,5] triazine-9-carboxylate], the inhibition at 10 µM was > 5%. On to `CNC(=O)[C@@H]1CC[C@H]2N1C(=O)[C@@H](Cc1ccccc1)N1C(=O)N(Cc3cccs3)C(=O)N(Cc3cccs3)[C@]21O` [Compound 18F, (6R,9S,11aR,11bR)-6-benzyl-11b-hydroxy-N-methyl-2,4,7-trioxo-1,3-bis(thiophen-2-ylmethyl)decahydro-2H-pyrrolo [2',1':3,4]pyrazino[1,2-a][1,3,5]triazine-9-carboxamide], for which the inhibition at 10 µM was in the range of 1 to 5%.
